# Assay results reported in patent US12605407B2, “Methods to induce terminal differentiation in stem cells by interfering with DNA replication, methods of inducing pancreatic differentiation, and differentiated cells obtained thereof” (priority 2018, dated 2026).
# Assays:
# [1] = test system: iPSC lines 1018E and 1023A; assay: Beta cell differentiation in iPSC lines with different differentiation potentials, C-peptide positive cells; format: cell-based, human
# Experimental: Human pluripotent stem cells were cultured and maintained in feeder-free plates with stemflex medium as described. Three cell lines were involved in this study as shown in Table 2: MEL1 is human embryonic stem cell line; 1023A is a human induced pluripotent stem cell line reprogrammed from a skin fibroblast biopsied of a healthy control; and 1018E is a human induced pluripotent stem cell line reprogrammed from a skin fibroblast biopsied from a type 1 diabetes patient. All human subjects research was reviewed and approved by the Columbia University Institutional Review Board, and the Columbia University Embryonic Stem Cell Committee.
# Beta cells differentiated from human pluripotent stem cell lines as described in Example 2 (Sui et al., 2018b). Indicated compounds that function as cell cycle inhibitors were added individually from day 15 to day 27 with concentration listed below:
# The beta cell clusters were dissociated using TrypLE™ Express into single cells. Cells were fixed with 4% PFA for 10 min and followed by permeabilization at −20° C. with cold methanol for 10 min. […] The cells were filtered with BD Falcon 12×75 mm tube with cell strainer cap (Cat. No. 352235, BD) and subsequently analyzed by flow cytometer. Data were analyzed using Flowjo software. […]
# [2] = test system: pancreatic progenitor cells; assay: TUNEL staining for apoptosis and absolute cell numbers; format: cell-based
# Excerpt: To determine whether the increased percentage of beta cells was due to cell death of proliferating progenitors or due to increased differentiation from pancreatic progenitor cells, absolute cell numbers and cell death were quantified. Cells at day 17 and day 27 with and without APH treatment were stained for TUNEL. […] Therefore, the increased percentage of C-peptide positive cells was due to the increased differentiation, not the elimination of non-C-peptide positive cells from day 15 to day 20. After day 20, APH maintained the purity of beta cell clusters by preventing the growth of non-beta cells.
# [3] = test system: stem cell derived beta cells; assay: Western blotting of sorted GFP positive cells; format: cell-based, human; conditions: Western Blot
# Experimental: The sorted GFP positive and negative cells with and without cell cycle inhibitor (e.g., APH) treatment were lysed with RIPA buffer. Protein was quantified with Pierce BCA protein assay kit. 20 ug of protein was loaded on 4-20% Mini-PROTEAN TGS Precast Protein Gels (Cat. No. 4561094, Bio-Rad) from each condition and ran at 100 V for 1 hour followed by transferring protein on PVDF membrane. The membrane was blocked with 3% BSA in TBST for 1 hour at RT, incubate with primary antibodies diluted in TBST with 3% BSA overnight on a shaker. After washing with TBST, the membrane was incubated with secondary antibodies diluted in TBST with 3% non-fat dry milk powder for 1 hour at room temperature. The image was taken using ChemiDoc Imaging Systems (Bio-Rad).
# Insulin positive cells were isolated based on GFP expression and the expressions of genes related to the maturation of beta cells including PDX1, NKX6.1, MAFA and insulin were evaluated (FIG. 6A). […] In addition, the C-peptide secretion was increased 2-6-fold, with an average of 3-fold, in response to high levels of glucose (FIG. 6D).
# NSG mice = assay: Transplantation of treated islet-like clusters, human C-peptide in mouse serum; format: in vivo
# Experimental: 8-10 weeks old male immuno-compromised mice (NOD.Cg-Prkdcscid Il2rgtm1Wj1/SzJ (NSG) from Jackson laboratories, Cat. No. 005557) were used for transplantation. For intra leg muscle transplantation, 1-2 million cells were collected and settled in tube with 50 μl Matrigel. All animal protocols were approved by the Institutional Animal Care and Use Committee in Columbia University.
# (§1) The human C-peptide levels in mouse serum were measured every two weeks in the fed state. Intraperitoneal glucose tolerance test was performed by fasting overnight and injecting 2 g/kg D-glucose solution at 2 weeks after mouse beta cells were ablated with one high dose (150 mg/kg) Streptozocin (Cat. No. S0130-1G, Sigma-Aldrich). Blood was collected in heparin-coated tube at fed state, fasting and 30 min after glucose injection. Plasma were collected by centrifuging tubes at 2000 g for 15 minutes at 4° C. The supernatants were collected for C-peptide and insulin detection with Mercodia M-Plex™ ARRAY Chemiluminescent Mercodia Beta Kit. Blood glucose levels was measured at fed state, fasting and every 30 minutes after glucose injection for 2 hours.
# To test the ability of aphidicolin treated islet-like clusters to regulate blood glucose levels, treated and untreated cells were grafted into NSG mice on day 27 of differentiation. After transplantation in the immunodeficient mice, the mice transplanted with APH treated cells developed higher human C-peptide starting from 2 weeks after engraftment compared to that of control mice (FIG. 7A). The increase became significant from 6 weeks after transplantation (FIG. 7B).
# STZ-treated mice = assay: Protection from diabetes after ablation of mouse beta cells by streptozotocin, glucose tolerance test; format: in vivo
# Experimental: as §1
# The ability of APH treated cells to protect mice from diabetes was determined after eliminating endogenous mouse beta cells by streptozotocin (STZ). STZ ablates mouse beta cells but is not toxic to human beta cells at the concentrations used. After STZ treatment, the blood glucose levels were monitored and grafted beta cells were challenged with high glucose to check their function. The blood glucose levels remained in the normal range over time in 3 out of 4 mice (FIG. 7E). Mice were tolerant to glucose and normalized blood glucose levels within 15 min of glucose injection (FIG. 7F). The secretion of human C-peptide and insulin decreased after fasting and increased after glucose injection (FIG. 7G).
compound,measurement,setting,value
"C[C@@]1(CO)[C@H](O)CC[C@@]2(C)[C@H]1CC[C@H]1C[C@@H]3C[C@@]12CC[C@]3(O)CO [APH, Aphidicolin]",percentage of C-peptide positive cells,"[1]; both cell lines 1018E and 1023A, after APH treatment versus control",significantly upregulated
same,average percentage of C-peptide positive cells,"[1]; cell line 1018E (differentiates poorly), after APH treatment",38%
same,"cell apoptosis, percentage of TUNEL positive cells","[2]; day 17 and day 27, early and late stage of APH treatment",No significant increase
same,number of total cells compared to control group,[2]; day 20,comparable
same,percentage of C-peptide positive cells compared to control,[2]; day 20,significantly increased
same,expression of MAFA at the translational level,[3],increased expression
same,expression of NKX6.1 at the translational level,[3],increased expression
same,expression of PDX1 at the translational level,[3],increased expression
same,expression of insulin at the translational level,[3],increased expression
same,secretion of human C-peptide in mice,NSG mice; after glucose injection,increased
same,"increase of human C-peptide versus control mice, significance",NSG mice; from 6 weeks after transplantation,significant
same,human C-peptide compared to control mice,"NSG mice; mice transplanted with APH treated cells, starting from 2 weeks after engraftment",higher
same,secretion of human C-peptide in mice,NSG mice; when mice were fasted,downregulated
same,mice whose blood glucose levels remained in the normal range over time,"STZ-treated mice; after STZ treatment, mice transplanted with APH treated cells",3 out of 4
same,secretion of human C-peptide and insulin,STZ-treated mice; after fasting,decreased
same,secretion of human C-peptide and insulin,STZ-treated mice; after glucose injection,increased
same,time to normalized blood glucose levels after glucose injection,"STZ-treated mice; glucose tolerance test, STZ-treated mice",≤ 15 min
